# Key:
# Assay type in all cases: in vivo
# [1] = test system: Brachiaria plantaginea (BRAPL); experiment: Experiment 1: field experiment, post-emergence spray, % control 29 days after application
# Method: (§1) Duplicate 12m² plots were sprayed post-emergence with 250g or 500g/ha Compound 1 (in a composition according to Example 1 as described hereinafter) or 1500g/ha atrazine (in a commercial aqueous suspension concentrate formulation containing 500g/l w/v atrazine or a combination (as a tank mix) of the two herbicides in a volume of 300 litres/ha. The following control figures were recorded on the grass weeds Brachiaria plantaginea (BRAPL), Digitaria horizontalis (DIGHO) and Eleusine indica (ELEIN) 29 days after application.
# [2] = test system: Digitaria horizontalis (DIGHO); experiment: as above
# Method: as §1
# Eleusine indica (ELEIN) = experiment: as above
# Method: as §1
# Amaranthus retroflexus = experiment: Experiment 3: glasshouse, post-emergence, fresh weight after 19 days, % inhibition of growth; conditions: 2 leaves; for inhibition at 2 g/ha / inhibition at 4 g/ha / inhibition at 8 g/ha / inhibition at 16 g/ha / inhibition at 31 g/ha / inhibition at 63 g/ha: Amaranthus retroflexus, post-emergence
# Method: (§2) A series of experiments was carried out to determine the nature of the biological interaction between atrazine and five compounds of general formula I on a range of weed species. […] The growth stages of the plants at spraying are also presented with the results. Agricultural surfactant (nonyl phenol ethylene oxide condensate containing 9 moles ethylene oxide marketed as 'Agral') was added to all spray dilutions to give 0.2% v/v concentration. […] After 19 days the fresh weight of vegetation in each pot was determined. […] E = […]00003:character} where E, X and Y are percentage inhibition of growth. In addition, the ED50 or ED90 values (the application rates giving 50% or 90% inhibition of growth, respectively) were calculated from the results for the piperidinedione alone and with increasing rates of atrazine.
# Brassica kaber [3] = experiment: as above; conditions: 2 leaves; for inhibition at 2 g/ha / inhibition at 4 g/ha / inhibition at 8 g/ha / inhibition at 16 g/ha / inhibition at 31 g/ha / inhibition at 63 g/ha: Mutarda arvensis, post-emergence
# Method: as §2
# Brassica kaber [4] = experiment: Experiment 4: glasshouse, pre-emergence, fresh weight after 27 days, % inhibition of growth; conditions: for % inhibition of growth: Atrazine 0 g/ha
# Method: (§3) Glasshouse experiments showing the biological interaction between atrazine and Compound 99 on weed species when applied pre-emergence. […] After 27 days the fresh weight of vegetation in each pot was determined. […] E = […]00005:character} where E, X and Y are percentage inhibition of growth. In addition the ED90 values (the application rate giving 90% inhibition of growth) were calculated from the results for Compound 99 alone and with increasing rates of atrazine. The ED90 values were then used to plot an isobole for each species according to the method of […] op cit. The results of percentage inhibition of growth, the ED values calculated from them and the calculated expected values are given in Table 8.
# Sida spinosa = experiment: as above; conditions: for % inhibition of growth: Atrazine 0 g/ha
# Method: as §3
# Solanum nigrum = experiment: Experiment 3: glasshouse, post-emergence, fresh weight after 19 days, % inhibition of growth; conditions: for inhibition at 2 g/ha / inhibition at 4 g/ha / inhibition at 8 g/ha / inhibition at 16 g/ha / inhibition at 31 g/ha / inhibition at 63 g/ha: Solanum nigrum, post-emergence
# Method: as §2
compound,measurement,setting,value
"CC1(C)CC(=O)C(C(=O)c2ccc(Cl)cc2[N+](=O)[O-])C(=O)N1 (stereo not drawn) [Compound 1, 3-(4-chloro-2-nitrobenzoyl)-6,6-dimethylpiperidine-2,4-dione]",% control observed,[1]; Compound 1 @ 250g/ha,60%
same,% control observed,[1]; Compound 1 @ 500g/ha,80%
same,% control observed,[2]; Compound 1 @ 250g/ha,70%
same,% control observed,[2]; Compound 1 @ 500g/ha,80%
same,% control observed,Eleusine indica (ELEIN); Compound 1 @ 250g/ha,70%
same,% control observed,Eleusine indica (ELEIN); Compound 1 @ 500g/ha,80%
same,inhibition at 2 g/ha,Amaranthus retroflexus; Compound 1 2 g/ha alone,25%
same,inhibition at 4 g/ha,Amaranthus retroflexus; Compound 1 4 g/ha alone,52%
same,inhibition at 8 g/ha,Amaranthus retroflexus; Compound 1 8 g/ha alone,73%
same,inhibition at 16 g/ha,Amaranthus retroflexus; Compound 1 16 g/ha alone,87%
same,inhibition at 31 g/ha,Amaranthus retroflexus; Compound 1 31 g/ha alone,95%
same,inhibition at 63 g/ha,Amaranthus retroflexus; Compound 1 63 g/ha alone,96%
same,ED₉₀,Amaranthus retroflexus; Compound 1 alone,ED₉₀(g/ha) 22.58
"CC1(C)CC(=O)C(C(=O)c2ccc(C(F)(F)F)cc2[N+](=O)[O-])C(=O)N1 (stereo not drawn) [Compound 99, 3-(2-nitro-4-trifluoromethylbenzoyl)-6,6-dimethylpiperidine-2,4-dione]",inhibition at 2 g/ha,Amaranthus retroflexus; Compound 99 2 g/ha alone,37%
same,inhibition at 4 g/ha,Amaranthus retroflexus; Compound 99 4 g/ha alone,85%
same,inhibition at 8 g/ha,Amaranthus retroflexus; Compound 99 8 g/ha alone,88%
same,inhibition at 16 g/ha,Amaranthus retroflexus; Compound 99 16 g/ha alone,80%
same,inhibition at 31 g/ha,Amaranthus retroflexus; Compound 99 31 g/ha alone,91%
same,inhibition at 63 g/ha,Amaranthus retroflexus; Compound 99 63 g/ha alone,98%
same,ED₉₀,Amaranthus retroflexus; Compound 99 alone,ED₉₀(g/ha) 14
same,ED₉₀,Brassica kaber [3]; Compound 99 alone,ED₉₀(g/ha) 31
same,inhibition at 2 g/ha,Brassica kaber [3]; Compound 99 2 g/ha alone,22%
same,inhibition at 4 g/ha,Brassica kaber [3]; Compound 99 4 g/ha alone,40%
same,inhibition at 8 g/ha,Brassica kaber [3]; Compound 99 8 g/ha alone,69%
same,inhibition at 16 g/ha,Brassica kaber [3]; Compound 99 16 g/ha alone,58%
same,inhibition at 31 g/ha,Brassica kaber [3]; Compound 99 31 g/ha alone,91%
same,inhibition at 63 g/ha,Brassica kaber [3]; Compound 99 63 g/ha alone,91%
same,% inhibition of growth,Brassica kaber [4]; Compound 99 8 g/ha,0%
same,% inhibition of growth,Brassica kaber [4]; Compound 99 16 g/ha,9%
same,% inhibition of growth,Brassica kaber [4]; Compound 99 31 g/ha,10%
same,% inhibition of growth,Brassica kaber [4]; Compound 99 63 g/ha,32%
same,% inhibition of growth,Brassica kaber [4]; Compound 99 125 g/ha,20%
same,% inhibition of growth,Brassica kaber [4]; Compound 99 250 g/ha,90%
same,ED₉₀,Brassica kaber [4]; Compound 99 alone,ED₉₀(g/ha) 340.34
same,% inhibition of growth,Sida spinosa; Compound 99 8 g/ha,0%
same,% inhibition of growth,Sida spinosa; Compound 99 16 g/ha,17%
same,% inhibition of growth,Sida spinosa; Compound 99 31 g/ha,26%
same,% inhibition of growth,Sida spinosa; Compound 99 63 g/ha,52%
same,% inhibition of growth,Sida spinosa; Compound 99 125 g/ha,88%
same,% inhibition of growth,Sida spinosa; Compound 99 250 g/ha,97%
same,ED₉₀,Sida spinosa; Compound 99 alone,ED₉₀(g/ha) 146.26
"CS(=O)(=O)c1ccc(C(=O)C2C(=O)CCNC2=O)c([N+](=O)[O-])c1 (stereo not drawn) [Compound 110, 3-(4-methylsulphonyl-2-nitrobenzoyl)piperidine-2,4-dione]",ED₉₀,Brassica kaber [3]; Compound 110 alone,ED₉₀(g/ha) 6.38
same,inhibition at 2 g/ha,Brassica kaber [3]; Compound 110 2 g/ha alone,45%
same,inhibition at 4 g/ha,Brassica kaber [3]; Compound 110 4 g/ha alone,84%
same,inhibition at 8 g/ha,Brassica kaber [3]; Compound 110 8 g/ha alone,98%
same,inhibition at 16 g/ha,Brassica kaber [3]; Compound 110 16 g/ha alone,99%
same,inhibition at 31 g/ha,Brassica kaber [3]; Compound 110 31 g/ha alone,100%
same,inhibition at 63 g/ha,Brassica kaber [3]; Compound 110 63 g/ha alone,100%
same,ED₉₀,"Solanum nigrum; Compound 110 alone, 1 leaf",ED₉₀(g/ha) 5.87
same,inhibition at 2 g/ha,"Solanum nigrum; Compound 110 2 g/ha alone, 1 leaf",38%
same,inhibition at 4 g/ha,"Solanum nigrum; Compound 110 4 g/ha alone, 1 leaf",80%
same,inhibition at 8 g/ha,"Solanum nigrum; Compound 110 8 g/ha alone, 1 leaf",98%
same,inhibition at 16 g/ha,"Solanum nigrum; Compound 110 16 g/ha alone, 1 leaf",100%
same,inhibition at 31 g/ha,"Solanum nigrum; Compound 110 31 g/ha alone, 1 leaf",100%
same,inhibition at 63 g/ha,"Solanum nigrum; Compound 110 63 g/ha alone, 1 leaf",100%
"CS(=O)(=O)c1ccc(C(=O)C2C(=O)CCNC2=O)c(Cl)c1 (stereo not drawn) [Compound 126, 3-(2-chloro-4-methylsulphonylbenzoyl)piperidine-2,4-dione]",ED₅₀,Brassica kaber [3]; Compound 126 alone,ED₅₀(g/ha) 28.09
same,inhibition at 2 g/ha,Brassica kaber [3]; Compound 126 2 g/ha alone,0%
same,inhibition at 4 g/ha,Brassica kaber [3]; Compound 126 4 g/ha alone,0%
same,inhibition at 8 g/ha,Brassica kaber [3]; Compound 126 8 g/ha alone,0%
same,inhibition at 16 g/ha,Brassica kaber [3]; Compound 126 16 g/ha alone,42%
same,inhibition at 31 g/ha,Brassica kaber [3]; Compound 126 31 g/ha alone,69%
same,inhibition at 63 g/ha,Brassica kaber [3]; Compound 126 63 g/ha alone,66%
same,ED₉₀,"Solanum nigrum; Compound 126 alone, 2 leaves",ED₉₀(g/ha)4.18
same,inhibition at 2 g/ha,"Solanum nigrum; Compound 126 2 g/ha alone, 2 leaves",72%
same,inhibition at 4 g/ha,"Solanum nigrum; Compound 126 4 g/ha alone, 2 leaves",90%
same,inhibition at 8 g/ha,"Solanum nigrum; Compound 126 8 g/ha alone, 2 leaves",97%
same,inhibition at 16 g/ha,"Solanum nigrum; Compound 126 16 g/ha alone, 2 leaves",100%
same,inhibition at 31 g/ha,"Solanum nigrum; Compound 126 31 g/ha alone, 2 leaves",100%
same,inhibition at 63 g/ha,"Solanum nigrum; Compound 126 63 g/ha alone, 2 leaves",100%
